target: c-Kit kinase (Homo sapiens (Human), UniProt P10721); test: c-Kit biochemical assay (AlphaScreen kinase activity)
Procedure: Assays for biochemical cell-based activity of c-kit kinase are known in the art, for example, as described in U.S. Pat. Nos. 7,498,342 and 7,846,941, the disclosures of which are hereby incorporated by reference as it relates to such assays. The c-kit (or kinase domain thereof) is an active kinase in AlphaScreen. IC50 values are determined with respect to inhibition of c-Kit kinase activity, where inhibition of phosphorylation of a peptide substrate is measured as a function of compound concentration. Compounds to be tested were dissolved in DMSO to a concentration of 30 mM. These were diluted 30 μl into 130 μl of DMSO (4 mM) and 1 μl was added to an assay plate. These were then serially diluted 1:3 (50 μl to 100 μl DMSO) for a total of 8 points. Plates were prepared such that each kinase reaction is 30 μl in 1× kinase buffer (50 mM HEPES, pH 7.2, 5 mM MgCl2, 5 mM MnCl2, 0.01% NP-40, 0.2% BSA), 5% DMSO and 10 μM ATP. Substrate was 100 nM biotin-(E4Y)3 (Open Source Biotech, Inc.). C-kit kinase was at 0.1 ng per sample. After incubation of the kinase reaction for 1 hour at room temperature, 5 μl of donor beads (Streptavidin coated beads (Perkin Elmer Life Science) final concentration 1 μg/ml) in stop buffer (50 mM EDTA in 1× kinase buffer) was added, the sample was mixed and incubated for 30 minutes at room temperature before adding […] of acceptor beads (PY30 coated beads (Perkin Elmer Life Science) final concentration 1 μg/ml) in stop buffer. The samples were incubated for 60 minutes at room temperature and the signal per well was read on AlphaQuest reader. Phosphorylated substrate results in binding of the PY30 antibody and association of the donor and acceptor beads such that signal correlates with kinase activity. The signal vs. compound concentration was used to determine the IC50.
Compounds were also tested using a similar assay with a 10-fold higher ATP concentration. For these samples, compounds to be tested were dissolved in DMSO to a concentration of 30 mM. These were diluted 30 μl into 130 μl of DMSO (4 mM) and 1 μl was added to an assay plate. These were then serially diluted 1:3 (50 μl to 100 μl DMSO) for a total of 8 points. Plates were prepared such that each kinase reaction is 30 μl in 1× kinase buffer (25 mM HEPES, pH 7.5, 2 mM MgCl2, 2 mM MnCl2, 0.01% […], 1 mM DTT, and 0.001% BSA), 5% DMSO and 100 μM ATP. Substrate was 30 nM biotin-(E4Y)10 (Upstate Biotech, Cat#12-440). C-kit kinase was at 1 ng per sample. After incubation of the kinase reaction for 1 hour at room temperature, 5 μl of donor beads (Streptavidin coated beads (Perkin Elmer Life Science) final concentration 10 μg/ml) in stop buffer (25 mM HEPES pH 7.5, 100 mM EDTA, 0.3% BSA) was added, the sample was mixed and incubated for 30 minutes at room temperature before adding 5 μl of acceptor beads (PY30 coated beads (Perkin Elmer Life Science) final concentration 10 μg/ml) in stop buffer. The samples were incubated for 60 minutes at room temperature and the signal per well was read on AlphaQuest or Envision reader (Perkin Elmer Life Science). Phosphorylated substrate results in binding of the PY30 antibody and association of the donor and acceptor beads such that signal correlates with kinase activity. The signal vs. compound concentration was used to determine the IC50.
The c-kit enzyme used in the above assay was either obtained from Cell Signaling Technology (Cat. #7754) or was prepared as follows: A plasmid encoding kit (DNA and encoded protein sequences shown below) was engineered using common polymerase chain reaction (PCR) methods. Complementary DNA cloned from various human tissues were purchased from Invitrogen, and these were used as substrates in the PCR reactions. Specific custom synthetic oligonucleotide primers were designed to initiate the PCR product, and also to provide the appropriate restriction enzyme cleavage sites for ligation with the plasmids. […]

c-Kit kinase, sequence (P10721 26-976): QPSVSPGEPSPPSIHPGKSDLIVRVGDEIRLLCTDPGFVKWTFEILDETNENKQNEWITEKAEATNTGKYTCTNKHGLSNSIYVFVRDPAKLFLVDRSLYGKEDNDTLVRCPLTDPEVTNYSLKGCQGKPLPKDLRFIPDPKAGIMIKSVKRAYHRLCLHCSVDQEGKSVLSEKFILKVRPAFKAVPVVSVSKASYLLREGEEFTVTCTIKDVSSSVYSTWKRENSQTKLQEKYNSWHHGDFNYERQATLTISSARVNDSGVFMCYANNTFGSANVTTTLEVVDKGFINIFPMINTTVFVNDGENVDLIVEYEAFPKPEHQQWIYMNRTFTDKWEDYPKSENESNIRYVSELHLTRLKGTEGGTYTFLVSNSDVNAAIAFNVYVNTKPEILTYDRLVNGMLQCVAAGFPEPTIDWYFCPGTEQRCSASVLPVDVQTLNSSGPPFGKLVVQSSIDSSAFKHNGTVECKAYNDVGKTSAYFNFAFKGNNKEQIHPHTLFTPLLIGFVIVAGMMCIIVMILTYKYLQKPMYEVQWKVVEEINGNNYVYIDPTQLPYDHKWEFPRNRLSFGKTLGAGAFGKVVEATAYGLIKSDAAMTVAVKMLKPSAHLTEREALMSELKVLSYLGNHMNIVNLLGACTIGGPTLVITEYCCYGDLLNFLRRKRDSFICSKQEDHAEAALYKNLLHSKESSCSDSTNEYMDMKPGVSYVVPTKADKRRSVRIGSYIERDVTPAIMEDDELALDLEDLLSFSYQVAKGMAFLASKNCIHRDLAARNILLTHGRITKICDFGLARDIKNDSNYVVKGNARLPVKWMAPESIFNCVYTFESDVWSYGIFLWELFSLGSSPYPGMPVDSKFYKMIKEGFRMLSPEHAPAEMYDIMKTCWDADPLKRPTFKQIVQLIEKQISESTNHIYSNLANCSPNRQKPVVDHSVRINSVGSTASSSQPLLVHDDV

First: COc1cc(-c2cc3c(N4CCC(c5nc(C)c(-c6ccc(F)cc6)[nH]5)CC4)ncnc3[nH]2)ccn1 [P-3007, 4-[4-[5-(4-fluorophenyl)-4-methyl-1H-imidazol-2-yl]-1-piperidyl]-6-(2-methoxy-4-pyridyl)-7H-pyrrolo[2,3-d]pyrimidine]
Second: COc1cc(-c2cc3c(N4CCC(c5nc(C)c(-c6ccc(C)c(OC)c6)[nH]5)CC4)ncnc3[nH]2)ccn1 [P-3104, 4-[4-[5-(3-methoxy-4-methyl-phenyl)-4-methyl-1H-imidazol-2-yl]-1-piperidyl]-6-(2-methoxy-4-pyridyl)-7H-pyrrolo[2,3-d]pyrimidine]
The IC50 of the first is lower: 1 to 10 µM for the first, 10 to 300 µM for the second. The first is the more potent here.

COc1cc(-c2cc3c(N4CCC(c5nc(C6CC6)c(-c6ccccc6)[nH]5)CC4)ncnc3[nH]2)ccn1 [P-3008, 4-[4-(4-cyclopropyl-5-phenyl-1H-imidazol-2-yl)-1-piperidyl]-6-(2-methoxy-4-pyridyl)-7H-pyrrolo[2,3-d]pyrimidine] and Fc1ccc(-c2cc3c(N4CCC(c5nc(C6CC6)c(-c6ccccc6)[nH]5)CC4)ncnc3[nH]2)cc1 [P-3009, 4-[4-(4-cyclopropyl-5-phenyl-1H-imidazol-2-yl)-1-piperidyl]-6-(4-fluorophenyl)-7H-pyrrolo[2,3-d]pyrimidine] fall in the same range of IC50: 0.0001 to 1 µM for the first, 0.0001 to 1 µM for the second.

First: N#Cc1ccc(-c2cc3c(N4CCC(c5nc(C6CC6)c(-c6ccccc6)[nH]5)CC4)ncnc3[nH]2)cc1 [P-3010, 4-[4-[4-(4-cyclopropyl-5-phenyl-1H-imidazol-2-yl)-1-piperidyl]-7H-pyrrolo[2,3-d]pyrimidin-6-yl]benzonitrile]
Second: Cc1nc(C2CCN(c3ncnc4[nH]c(-c5ccc(C#N)cc5)cc34)CC2)[nH]c1-c1ccc(OC(F)F)cc1 [P-3113, 4-[4-[4-[5-[4-(difluoromethoxy)phenyl]-4-methyl-1H-imidazol-2-yl]-1-piperidyl]-7H-pyrrolo[2,3-d]pyrimidin-6-yl]benzonitrile]
The IC50 of the first is lower: 0.0001 to 1 µM for the first, 1 to 10 µM for the second. The first is the more potent here.

Cc1nc(C2CCN(c3ncnc4[nH]c(-c5ccc(F)cc5)cc34)CC2)[nH]c1-c1cccc(OC(F)(F)F)c1 [P-3011, 6-(4-fluorophenyl)-4-[4-[4-methyl-5-[3-(trifluoromethoxy)phenyl]-1H-imidazol-2-yl]-1-piperidyl]-7H-pyrrolo[2,3-d]pyrimidine] and Cc1nc(C2CCN(c3ncnc4[nH]c(-c5ccc(F)cc5)cc34)CC2)[nH]c1-c1ccc2c(c1)OC(F)(F)O2 [P-3109, 4-[4-[5-(2,2-difluoro-1,3-benzodioxol-5-yl)-4-methyl-1H-imidazol-2-yl]-1-piperidyl]-6-(4-fluorophenyl)-7H-pyrrolo[2,3-d]pyrimidine] fall in the same range of IC50: 1 to 10 µM for the first, 1 to 10 µM for the second.

First: CCOc1cc(-c2[nH]c(C3CCN(c4ncnc5[nH]c(-c6ccc(C#N)cc6)cc45)CC3)nc2C)ccc1C [P-3095, 4-[4-[4-[5-(3-ethoxy-4-methyl-phenyl)-4-methyl-1H-imidazol-2-yl]-1-piperidyl]-7H-pyrrolo[2,3-d]pyrimidin-6-yl]benzonitrile]
Second: COc1cc(-c2[nH]c(C3CCN(c4ncnc5[nH]c(-c6ccc(C#N)cc6)cc45)CC3)nc2C)ccc1C [P-3106, 4-[4-[4-[5-(3-methoxy-4-methyl-phenyl)-4-methyl-1H-imidazol-2-yl]-1-piperidyl]-7H-pyrrolo[2,3-d]pyrimidin-6-yl]benzonitrile]
The IC50 of the first is lower: 0.0001 to 1 µM for the first, 1 to 10 µM for the second. The first is the more potent here.

Compared with CCOc1cc(-c2[nH]c(C3CCN(c4ncnc5[nH]c(-c6ccnc(OC)c6)cc45)CC3)nc2C)ccc1C [P-3096, 4-[4-[5-(3-ethoxy-4-methyl-phenyl)-4-methyl-1H-imidazol-2-yl]-1-piperidyl]-6-(2-methoxy-4-pyridyl)-7H-pyrrolo[2,3-d]pyrimidine], COc1cc(-c2cc3c(N4CCC(c5nc(C)c(-c6ccc7c(c6)OC(F)(F)O7)[nH]5)CC4)ncnc3[nH]2)ccn1 [P-3111, 4-[4-[5-(2,2-difluoro-1,3-benzodioxol-5-yl)-4-methyl-1H-imidazol-2-yl]-1-piperidyl]-6-(2-methoxy-4-pyridyl)-7H-pyrrolo[2,3-d]pyrimidine] is higher in IC50: 0.0001 to 1 µM for the first, 10 to 300 µM for the second. The first is the more potent here.

Cc1nc(C2CCN(c3ncnc4[nH]c(-c5ccnc(C(F)(F)F)c5)cc34)CC2)[nH]c1-c1ccccc1 [P-3097, 4-[4-(4-methyl-5-phenyl-1H-imidazol-2-yl)-1-piperidyl]-6-[2-(trifluoromethyl)-4-pyridyl]-7H-pyrrolo[2,3-d]pyrimidine] and Cc1nc(C2CCN(c3ncnc4[nH]c(-c5cccc(C(F)(F)F)c5)cc34)CC2)[nH]c1-c1ccccc1 [P-3098, 4-[4-(4-methyl-5-phenyl-1H-imidazol-2-yl)-1-piperidyl]-6-[3-(trifluoromethyl)phenyl]-7H-pyrrolo[2,3-d]pyrimidine] fall in the same range of IC50: 1 to 10 µM for the first, 1 to 10 µM for the second.

Compared with CCOc1ccc(-c2[nH]c(C3(C)CCN(c4ncnc5[nH]c(C)cc45)CC3)nc2C)cc1C [P-3099, 4-[4-[5-(4-ethoxy-3-methyl-phenyl)-4-methyl-1H-imidazol-2-yl]-4-methyl-1-piperidyl]-6-methyl-7H-pyrrolo[2,3-d]pyrimidine], COc1ccc(-c2[nH]c(C3(C)CCN(c4ncnc5[nH]c(C)cc45)CC3)nc2C)cc1C [P-3102, 4-[4-[5-(4-methoxy-3-methyl-phenyl)-4-methyl-1H-imidazol-2-yl]-4-methyl-1-piperidyl]-6-methyl-7H-pyrrolo[2,3-d]pyrimidine] is higher in IC50: 0.0001 to 1 µM for the first, 1 to 10 µM for the second. The first is the more potent here.

Compared with CCc1ccc(-c2[nH]c(C3(C)CCN(c4ncnc5[nH]c(C)cc45)CC3)nc2C)cc1 [P-3101, 4-[4-[5-(4-ethylphenyl)-4-methyl-1H-imidazol-2-yl]-4-methyl-1-piperidyl]-6-methyl-7H-pyrrolo[2,3-d]pyrimidine], COc1cc(-c2[nH]c(C3(C)CCN(c4ncnc5[nH]c(C)cc45)CC3)nc2C)ccc1C [P-3105, 4-[4-[5-(3-methoxy-4-methyl-phenyl)-4-methyl-1H-imidazol-2-yl]-4-methyl-1-piperidyl]-6-methyl-7H-pyrrolo[2,3-d]pyrimidine] is higher in IC50: 0.0001 to 1 µM for the first, 1 to 10 µM for the second. The first is the more potent here.

Cc1nc(C2CCN(c3ncnc4[nH]c(-c5cnn(C(F)F)c5)cc34)CC2)[nH]c1-c1ccc(F)cc1 [P-3107, 6-[1-(difluoromethyl)pyrazol-4-yl]-4-[4-[5-(4-fluorophenyl)-4-methyl-1H-imidazol-2-yl]-1-piperidyl]-7H-pyrrolo[2,3-d]pyrimidine] and COc1ccc(-c2[nH]c(C3CCN(c4ncnc5[nH]c(-c6cnn(C(F)F)c6)cc45)CC3)nc2C)cc1 [P-3108, 6-[1-(difluoromethyl)pyrazol-4-yl]-4-[4-[5-(4-methoxyphenyl)-4-methyl-1H-imidazol-2-yl]-1-piperidyl]-7H-pyrrolo[2,3-d]pyrimidine] fall in the same range of IC50: 0.0001 to 1 µM for the first, 0.0001 to 1 µM for the second.

First: Cc1nc(C2CCN(c3ncnc4[nH]c(-c5ccc(C#N)cc5)cc34)CC2)[nH]c1-c1ccc2c(c1)OC(F)(F)O2 [P-3110, 4-[4-[4-[5-(2,2-difluoro-1,3-benzodioxol-5-yl)-4-methyl-1H-imidazol-2-yl]-1-piperidyl]-7H-pyrrolo[2,3-d]pyrimidin-6-yl]benzonitrile]
Second: COc1ccc(-c2[nH]c(C3CCN(c4ncnc5[nH]c(-c6ccc(C#N)cc6)cc45)CC3)nc2C)cn1 [P-3112, 4-[4-[4-[5-(6-methoxy-3-pyridyl)-4-methyl-1H-imidazol-2-yl]-1-piperidyl]-7H-pyrrolo[2,3-d]pyrimidin-6-yl]benzonitrile]
The IC50 of the first is higher: 10 to 300 µM for the first, 0.0001 to 1 µM for the second.

COc1cccc(-c2[nH]c(C3CCN(c4ncnc5[nH]c(-c6cnn(C(F)F)c6)cc45)CC3)nc2C)c1 [P-3114, 6-[1-(difluoromethyl)pyrazol-4-yl]-4-[4-[5-(3-methoxyphenyl)-4-methyl-1H-imidazol-2-yl]-1-piperidyl]-7H-pyrrolo[2,3-d]pyrimidine] gave an IC50 of 0.0001 to 1 µM.

Source: US9771369B2, “Compounds and methods for kinase modulation, and indications therefor” (Plexxikon Inc., priority 2014, dated 2017)
